Patent US10071100B2, “Therapeutic nanoparticles comprising a therapeutic agent and methods of making and using the same” (PFIZER INC., priority 2014, dated 2018)

How the values were obtained:
[1] = physchem; assay type: physicochemical
Text: It is described in U.S. Pat. No. 8,039,469, the contents of which are incorporated by reference. […] As indicated above, it is a base. It is a protonatable nitrogen-containing therapeutic agent. As used herein, a “protonatable nitrogen-containing therapeutic agent” includes any pharmaceutically active agent that contains at least one nitrogen-containing functional group that is capable of being protonated. In other words, the therapeutic agent has a nitrogen atom thereon which has a lone pair of electrons that could potentially accept a proton. The pKa refers to the acid dissociation constant on a logarithmic scale of the corresponding protonated form of the therapeutic agent. In other words, if a proton (H+) were present at the nitrogen atoms where there is an arrow indicated, the therapeutic agent would have the pKa indicated below: […]

[2] = pKa (acid dissociation constant); assay type: physicochemical; conditions: protonated form of the therapeutic agent; read-out: first pKa
Text: It is described in U.S. Pat. No. 8,039,469, the contents of which are incorporated by reference. […] As indicated above, it is a base. It is a protonatable nitrogen-containing therapeutic agent. As used herein, a “protonatable nitrogen-containing therapeutic agent” includes any pharmaceutically active agent that contains at least one nitrogen-containing functional group that is capable of being protonated. In other words, the therapeutic agent has a nitrogen atom thereon which has a lone pair of electrons that could potentially accept a proton. The pKa refers to the acid dissociation constant on a logarithmic scale of the corresponding protonated form of the therapeutic agent. In other words, if a proton (H+) were present at the nitrogen atoms where there is an arrow indicated, the therapeutic agent would have the pKa indicated below:
The pKa information for the most basic nitrogen (bottom) and a less basic but still protonatable nitrogen (upper) are shown above. ACD is a calculated number using standard techniques known in the art, such as described in Liao C Z, Nicklaus M C. Comparison of nine programs predicting pK(a) values of pharmaceutical substances. J. Chem. Inform. Model. 49(12):2801-2812, 2009. It has to be understood that the pKa of the therapeutic agent refers to the protonated form thereof. […]

[3] = pharmacokinetics of nanoparticles in Wistar Han rats; assay type: in vivo; conditions: rat; male Wistar Han rats, intravenous 1 mg/kg bolus, plasma
Method: The protocol was as follows: Male Wistar Han rats (approximately six weeks in age; n=4/group) with indwelling jugular vein cannulae were dosed intravenously with a 1 mg/kg bolus of Formulation A, B, and C nanoparticles or Formulation A, B, and C nanoparticles diluted in 0.9% saline. At various times after dosing, serial blood collections were made from the jugular vein cannulae and plasma concentrations of therapeutic agent were quantitated by LC-MS/MS.

logD ([1]; pH 6.5): 0.212 | logD ([1]; pH 7.4): 1.08 | pKa [2]: ~6.7 | AUC [3]: 920 ng·h/mL | half-life [3]: 13.2 h
SMILES: CN(C)C1CCN(C(=O)c2ccc(NC(=O)Nc3ccc(-c4nc(N5CCOCC5)nc(N5CCOCC5)n4)cc3)cc2)CC1 [therapeutic agent, 1-(4-{[4-(dimethylamino)piperidin-1-yl]carbonyl}phenyl)-3-[4-(4,6-dimorpholin-4-yl-1,3,5-triazin-2-yl)phenyl]urea]
